Measured values: PMC10847306, “The antibacterial activity and mechanism of a novel peptide MR-22 against multidrug-resistant Escherichia coli” (Frontiers in Cellular and Infection Microbiology, 2024)
In brackets after ≈: the same amount, converted by molar mass.

What was measured:
Assay in all cases: microbe, parasite or virus in culture
E. coli ATCC 25922 = details: for susceptibility category (S/I/R) given with the MIC: E. coli ATCC 25922; for MIC: Escherichia coli, ATCC25922, 18 h
Protocol: (§1) The MIC were determined by a micro dilution method in Mueller-Hinton broth (MHB) ([Cuenca-Estrella et al., 2010]). The final concentration of bacterial suspension in MHB were 1.0×10^6 CFU/mL. The final concentration of MR-22 ranged 1 ~ 256 μg/mL in 96 wells plate broth at 37°C for 16~18 h. Imipenem was employed as positive control, bacterial grown without treatment as negative control and MHB as blank control. MIC determination was performed by reading the OD600 nm. Take 100 μL samples in holes that have never seen bacterial growth and place them on the LB agar board. The concentration of MR-22 with no bacterial growth was defined as the MBC.

[1] = tested on: E. coli clinical strain E16; details: for MIC: Escherichia coli, 18 h; for susceptibility category (S/I/R) given with the MIC: strain E16
Protocol: (§2) The clinical strains used in this study were obtained from a tertiary healthcare facility located in Guiyang, a city situated within the Guizhou Province of China. The E. coli ATCC 25922 was obtained from the Key and Characteristic Laboratory of Modern Pathogen Biology at Guizhou Medical University in Guiyang, China. All strains were stored at –80°C in LB medium and routinely cultured at LB medium at 37°C.
as §1

[2] = tested on: E. coli clinical strain E18; details: for MIC: Escherichia coli, 18 h; for susceptibility category (S/I/R) given with the MIC: strain E18
Protocol: as §2, §1

[3] = tested on: E. coli clinical strain E06; details: for MIC: Escherichia coli, 18 h; for susceptibility category (S/I/R) given with the MIC: strain E06
Protocol: as §2, §1

[4] = tested on: E. coli clinical strain E20; details: for MIC: Escherichia coli, 18 h; for susceptibility category (S/I/R) given with the MIC: strain E20
Protocol: as §2, §1

[5] = tested on: E. coli clinical strain E14; details: for MIC: Escherichia coli, 18 h; for susceptibility category (S/I/R) given with the MIC: strain E14
Protocol: as §2, §1

[6] = tested on: E. coli clinical strain E08; details: for MIC: Escherichia coli, 18 h; for susceptibility category (S/I/R) given with the MIC: strain E08
Protocol: as §2, §1

[7] = tested on: E. coli clinical strain E15; details: for MIC: Escherichia coli, 18 h; for susceptibility category (S/I/R) given with the MIC: strain E15
Protocol: as §2, §1

[8] = tested on: E. coli clinical strain E02; details: for MIC: Escherichia coli, 18 h; for susceptibility category (S/I/R) given with the MIC: strain E02
Protocol: as §2, §1

[9] = tested on: E. coli clinical strain E09; details: for MIC: Escherichia coli, 18 h; for susceptibility category (S/I/R) given with the MIC: strain E09
Protocol: as §2, §1

[10] = tested on: E. coli clinical strain E01; details: for MIC: Escherichia coli, 18 h; for susceptibility category (S/I/R) given with the MIC: strain E01
Protocol: as §2, §1

[11] = tested on: E. coli clinical strain E04; details: for MIC: Escherichia coli, 18 h; for susceptibility category (S/I/R) given with the MIC: strain E04
Protocol: as §2, §1

[12] = tested on: E. coli clinical strain E13; details: for MIC: Escherichia coli, 18 h; for susceptibility category (S/I/R) given with the MIC: strain E13
Protocol: as §2, §1

[13] = tested on: E. coli clinical strain E05; details: for MIC: Escherichia coli, 18 h; for susceptibility category (S/I/R) given with the MIC: strain E05
Protocol: as §2, §1

[14] = tested on: E. coli clinical strain E07; details: for MIC: Escherichia coli, 18 h; for susceptibility category (S/I/R) given with the MIC: strain E07
Protocol: as §2, §1

[15] = tested on: E. coli clinical strain E10; details: for MIC: Escherichia coli, 18 h; for susceptibility category (S/I/R) given with the MIC: strain E10
Protocol: as §2, §1

[16] = tested on: E. coli clinical strain E19; details: for MIC: Escherichia coli, 18 h; for susceptibility category (S/I/R) given with the MIC: strain E19
Protocol: as §2, §1

[17] = tested on: E. coli clinical strain E11; details: for MIC: Escherichia coli, 18 h; for susceptibility category (S/I/R) given with the MIC: strain E11
Protocol: as §2, §1

[18] = tested on: E. coli clinical strain E17; details: for MIC: Escherichia coli, 18 h; for susceptibility category (S/I/R) given with the MIC: strain E17
Protocol: as §2, §1

[19] = tested on: E. coli clinical strain E12; details: for MIC: Escherichia coli, 18 h; for susceptibility category (S/I/R) given with the MIC: strain E12
Protocol: as §2, §1

[20] = tested on: E. coli clinical strain E21; details: for MIC: Escherichia coli, 18 h; for susceptibility category (S/I/R) given with the MIC: strain E21
Protocol: as §2, §1

[21] = tested on: E. coli clinical strain E22; details: for MIC: Escherichia coli, 18 h; for susceptibility category (S/I/R) given with the MIC: strain E22
Protocol: as §2, §1

[22] = tested on: E. coli clinical strain E03; details: for MIC: Escherichia coli, 18 h; for susceptibility category (S/I/R) given with the MIC: strain E03
Protocol: as §2, §1

CN(C)[C@@H]1C(O)=C(C(N)=O)C(=O)[C@@]2(O)C(O)=C3C(=O)c4c(O)cccc4[C@@](C)(O)[C@H]3C[C@@H]12 [TET, tetracycline]
susceptibility category (S/I/R) given with the MIC (E. coli ATCC 25922): S
MIC (E. coli ATCC 25922): ≤ 0.5 mg/L
MIC [1]: ≤ 0.5 mg/L
susceptibility category (S/I/R) given with the MIC [1]: S
MIC [2]: ≤ 0.5 mg/L
susceptibility category (S/I/R) given with the MIC [2]: S
MIC [3]: > 8 mg/L
susceptibility category (S/I/R) given with the MIC [3]: R
MIC [4]: ≤ 0.5 mg/L
susceptibility category (S/I/R) given with the MIC [4]: S
MIC [5]: > 8 mg/L
susceptibility category (S/I/R) given with the MIC [5]: R
MIC [6]: > 8 mg/L
susceptibility category (S/I/R) given with the MIC [6]: R
MIC [7]: ≤ 0.5 mg/L
susceptibility category (S/I/R) given with the MIC [7]: S
MIC [8]: > 8 mg/L
susceptibility category (S/I/R) given with the MIC [8]: R
MIC [9]: > 8 mg/L
susceptibility category (S/I/R) given with the MIC [9]: R
MIC [10]: ≤ 0.5 mg/L
susceptibility category (S/I/R) given with the MIC [10]: S
MIC [11]: > 8 mg/L
susceptibility category (S/I/R) given with the MIC [11]: R
MIC [12]: ≤ 0.5 mg/L
susceptibility category (S/I/R) given with the MIC [12]: S
MIC [13]: > 8 mg/L
susceptibility category (S/I/R) given with the MIC [13]: R
MIC [14]: > 8 mg/L
susceptibility category (S/I/R) given with the MIC [14]: R
MIC [15]: ≤ 0.5 mg/L
susceptibility category (S/I/R) given with the MIC [15]: S
MIC [16]: ≤ 0.5 mg/L
susceptibility category (S/I/R) given with the MIC [16]: S
MIC [17]: > 8 mg/L
susceptibility category (S/I/R) given with the MIC [17]: R
MIC [18]: ≤ 0.5 mg/L
susceptibility category (S/I/R) given with the MIC [18]: S
MIC [19]: > 8 mg/L
susceptibility category (S/I/R) given with the MIC [19]: R
MIC [20]: ≤ 0.5 mg/L
susceptibility category (S/I/R) given with the MIC [20]: S
MIC [21]: ≤ 0.5 mg/L
susceptibility category (S/I/R) given with the MIC [21]: S
MIC [22]: > 8 mg/L
susceptibility category (S/I/R) given with the MIC [22]: R

C[C@H]1COc2c(N3CCN(C)CC3)c(F)cc3c(=O)c(C(=O)O)cn1c23 [LEV, levofloxacin]
susceptibility category (S/I/R) given with the MIC (E. coli ATCC 25922): S
MIC (E. coli ATCC 25922): ≤ 0.5 mg/L
MIC [1]: 1 mg/L (≈ 2.77 µM)
susceptibility category (S/I/R) given with the MIC [1]: I
MIC [2]: > 8 mg/L
susceptibility category (S/I/R) given with the MIC [2]: R
MIC [3]: 8 mg/L (≈ 22.1 µM)
susceptibility category (S/I/R) given with the MIC [3]: R
MIC [4]: > 8 mg/L
susceptibility category (S/I/R) given with the MIC [4]: R
MIC [5]: > 8 mg/L
susceptibility category (S/I/R) given with the MIC [5]: R
MIC [6]: ≤ 0.5 mg/L
susceptibility category (S/I/R) given with the MIC [6]: S
MIC [7]: 0.5 mg/L (≈ 1.38 µM)
susceptibility category (S/I/R) given with the MIC [7]: S
MIC [8]: ≤ 0.5 mg/L
susceptibility category (S/I/R) given with the MIC [8]: S
MIC [9]: 8 mg/L (≈ 22.1 µM)
susceptibility category (S/I/R) given with the MIC [9]: R
MIC [10]: ≤ 0.5 mg/L
susceptibility category (S/I/R) given with the MIC [10]: S
MIC [11]: > 8 mg/L
susceptibility category (S/I/R) given with the MIC [11]: R
MIC [12]: ≤ 0.5 mg/L
susceptibility category (S/I/R) given with the MIC [12]: S
MIC [13]: ≤ 0.5 mg/L
susceptibility category (S/I/R) given with the MIC [13]: S
MIC [14]: ≤ 0.5 mg/L
susceptibility category (S/I/R) given with the MIC [14]: S
MIC [15]: ≤ 0.5 mg/L
susceptibility category (S/I/R) given with the MIC [15]: S
MIC [16]: > 8 mg/L
susceptibility category (S/I/R) given with the MIC [16]: R
MIC [17]: ≤ 0.5 mg/L
susceptibility category (S/I/R) given with the MIC [17]: S
MIC [18]: > 8 mg/L
susceptibility category (S/I/R) given with the MIC [18]: R
MIC [19]: > 8 mg/L
susceptibility category (S/I/R) given with the MIC [19]: R
MIC [20]: ≤ 0.5 mg/L
susceptibility category (S/I/R) given with the MIC [20]: S
MIC [21]: > 8 mg/L
susceptibility category (S/I/R) given with the MIC [21]: R
MIC [22]: 8 mg/L (≈ 22.1 µM)
susceptibility category (S/I/R) given with the MIC [22]: R

CO/N=C(\C(=O)N[C@@H]1C(=O)N2C(C(=O)[O-])=C(C[N+]3(C)CCCC3)CS[C@H]12)c1csc(N)n1 [FEP, cefepime]
susceptibility category (S/I/R) given with the MIC (E. coli ATCC 25922): S
MIC (E. coli ATCC 25922): ≤ 2 mg/L
MIC [1]: ≤ 2 mg/L
susceptibility category (S/I/R) given with the MIC [1]: S
MIC [2]: 16 mg/L (≈ 33.3 µM)
susceptibility category (S/I/R) given with the MIC [2]: R
MIC [3]: > 16 mg/L
susceptibility category (S/I/R) given with the MIC [3]: R
MIC [4]: 16 mg/L (≈ 33.3 µM)
susceptibility category (S/I/R) given with the MIC [4]: R
MIC [5]: 16 mg/L (≈ 33.3 µM)
susceptibility category (S/I/R) given with the MIC [5]: R
MIC [6]: ≤ 2 mg/L
susceptibility category (S/I/R) given with the MIC [6]: S
MIC [7]: ≤ 2 mg/L
susceptibility category (S/I/R) given with the MIC [7]: S
MIC [8]: > 16 mg/L
susceptibility category (S/I/R) given with the MIC [8]: R
MIC [9]: ≤ 2 mg/L
susceptibility category (S/I/R) given with the MIC [9]: S
MIC [10]: ≤ 2 mg/L
susceptibility category (S/I/R) given with the MIC [10]: S
MIC [11]: > 16 mg/L
susceptibility category (S/I/R) given with the MIC [11]: R
MIC [12]: ≤ 2 mg/L
susceptibility category (S/I/R) given with the MIC [12]: S
MIC [13]: > 16 mg/L
susceptibility category (S/I/R) given with the MIC [13]: R
MIC [14]: > 16 mg/L
susceptibility category (S/I/R) given with the MIC [14]: R
MIC [15]: 16 mg/L (≈ 33.3 µM)
susceptibility category (S/I/R) given with the MIC [15]: R
MIC [16]: 16 mg/L (≈ 33.3 µM)
susceptibility category (S/I/R) given with the MIC [16]: R
MIC [17]: > 16 mg/L
susceptibility category (S/I/R) given with the MIC [17]: R
MIC [18]: ≤ 2 mg/L
susceptibility category (S/I/R) given with the MIC [18]: S
MIC [19]: 4 mg/L (≈ 8.32 µM)
susceptibility category (S/I/R) given with the MIC [19]: I
MIC [20]: 16 mg/L (≈ 33.3 µM)
susceptibility category (S/I/R) given with the MIC [20]: R
MIC [21]: ≥ 32 mg/L
susceptibility category (S/I/R) given with the MIC [21]: R
MIC [22]: 16 mg/L (≈ 33.3 µM)
susceptibility category (S/I/R) given with the MIC [22]: R
